In patent US20180002692A1, “Sequence Specific and Organism Specific Antimicrobials and Related Materials and Methods” (priority 2015, published 2018):
Entries after “also recorded” stand apart in the source; their conditions may differ.

What was measured:
[1] = test system: ampicillin-resistant E. coli; type: cell-based; details: no α-TSS (no treatment)
Protocol: Three biological replicates were selected from colonies and pretreated for 16 hr with respective α-TSS concentration in liquid media. After pretreatment, the cultures were diluted 1:100,000 into liquid media with respective concentration of ampicillin and α-TSS and allowed to grow with shaking at 37° C. for 24 hr. The final OD at 562 nm at 24 hr was used for data analysis.
Data fitting analysis was performed in Origin Pro 6.1. Data was fit to a sigmoidal/decay Boltzman function.
The degree of re-sensitization exerted by α-TSS in presence of varying concentrations of ampicillin above and below the MIC determined for α-TSS was then evaluated.

MG1655 E. coli [2] = test: Growth (optical density, lag time) of MG1655; type: cell-based; details: 10 μM antisense inhibitor; for growth of MG1655 E. coli cultures: 24 h
Protocol: MG1655 E. coli cultures were started from individual colonies from 2% LB and 1.5% agar into M9 media. They were diluted 1:10,000 from overnight culture into fresh M9 with respective treatment and grown at 37° C. with 225 rpm shaking. Clinical strains were started from individual colonies grown on cation adjusted Mueller Hinton Broth with 1.5% agar into liquid CAMHB. These were diluted 1:10,000 into CAMHB medium with respective treatment and grown at 37° C. with 225 rpm shaking. Optical density measurements were taking using a Tecan GENios at 562 nm with a bandwidth of 35 nm. Lag time was calculated using Growth Rates Made Easy (Hall et al. Mol. Biol. Evol. 31(1):232-238). […]

CRE E. coli = test: Growth of clinical strain CRE E. coli; type: cell-based, Escherichia coli; details: 10 μM
Protocol: (§1) MG1655 E. coli cultures were started from individual colonies from 2% LB and 1.5% agar into M9 media. They were diluted 1:10,000 from overnight culture into fresh M9 with respective treatment and grown at 37° C. with 225 rpm shaking. Clinical strains were started from individual colonies grown on cation adjusted Mueller Hinton Broth with 1.5% agar into liquid CAMHB. These were diluted 1:10,000 into CAMHB medium with respective treatment and grown at 37° C. with 225 rpm shaking. Optical density measurements were taking using a Tecan GENios at 562 nm with a bandwidth of 35 nm. Lag time was calculated using Growth Rates Made Easy (Hall et al. Mol. Biol. Evol. 31(1):232-238).
(§2) MDR E. coli was inhibited by four of the six oligomers tested (α-folC, α-ffh, α-lexA, and α-rpsD), extended-spectrum beta-lactamase (ESBL) K. pneumoniae was inhibited by two of the antisense oligomers (α-fnrS and α-rpsD), and New Delhi metallo-β-lactamase (NDM-1) K. pneumoniae was inhibited by one of the oligomers tested (α-rpsD) (FIGS. 15-16).

[3] = test system: MDR Salmonella typhimurium; test: Growth of clinical strain MDR S. typhimurium; type: cell-based; details: 10 μM
Protocol: as §1, §2

MG1655 E. coli [4] = test: Colony forming unit analysis of MG1655; type: cell-based; details: 10 μM, six and eight hours
Text: The effect of α-lexA, α-fnrS, and α-rpsD on cell viability using a colony forming unit analysis was then determine.

MDR E. coli = test: Growth of clinical strain MDR E. coli; type: cell-based; details: 10 μM
Protocol: as §1, §2

ESBL K. pneumoniae = test: Growth of clinical strain ESBL K. pneumoniae; type: cell-based, Klebsiella pneumoniae; details: 10 μM
Protocol: as §1, §2

[5] = test system: ampicillin-resistant E. coli; type: cell-based; details: for growth of drug-resistant E. coli in presence of ampicillin: antisense oligomer plus 300 μg/mL ampicillin
Protocol: pAKgfp1 plasmid was obtained from Addgene for TEM-1 β-lactamase resistance gene, bla (43). The plasmid was cloned into chemically competent Zymo DH5a E. coli (Expressys). Untransformed Zymo DH5a was used as a control strain for β-lactamase activity assays. Liquid cultures were grown in 2% LB, incubated at 37° C. and shaken at 225 rpm. Solid cultures were grown on 2% LB broth, 1.5% agar at 37° C. Ampicillin sodium salt (Sigma Aldrich) was used for selection at a concentration of 300 μg/mL for MIC and CFU analysis. Optical density measurements were taken using a Tecan GENios at 562 nm with a bandwidth of 35 nm. All bacterial freezer stocks were stored in 40% glycerol at −80° C.

bla mRNA = bla mRNA expression by qPCR; type: cell-based, E. coli; details: 5 μM α-TSS, 25 μM α-RBS, 25 μM α-YUNR; absence of ampicillin
Protocol: Three biological replicates were used for bla expression analysis. Cultures were pretreated overnight in respective PNA and liquid media in the absence of ampicillin and collected for RNA at 16 hr.
50 μL of the respective culture was added to 100 μL of Bacteria RNAprotect (Qiagen) and incubated at room temperature for 5 min. The cells were then pelleted via centrifugation for 3 min at 10,000 rpm, the supernatant removed, and samples were flash frozen in an ethanol dry ice bath and stored at −80° C. Precautions were taken to protect RNA from RNases using RNaseZap (Life Technologies). RNA was extracted from frozen cell pellets using GeneJET RNA purification kit (Thermo Scientific) and 350-600 ng was treated with Turbo DNA-free (Ambion). 50 ng cDNA was synthesized using Maxima Universal First Stand cDNA synthesis kit (Thermo Scientific). 1.5 ng of cDNA was used for qPCR with Maxima SYBR Green qPCR master mix with ROX normalization (Thermo Scientific) using Illumina Eco qPCR system. Transcript levels were analyzed using the ΔCq method with respect to moderately expressed housekeeping gene cysG (43). Transcript levels were further analyzed for the mutant populations using the ΔΔCq method with respect to the no treatment populations.

β-lactamase = details: 5 μM α-TSS, 25 μM α-RBS, 25 μM α-YUNR; absence of ampicillin
Protocol: Fluorocillin™ Green 495/525 β-lactamase substrate soluble product (Life Technologies) was used at a concentration of 2.2 μM as a β-lactamase substrate and measured using a Tecan GENios microplate reader in black flat bottom 96 well plate at 485/535 nm with a bandwidth of 35 nm. Three biological replicates were grown from colonies for 12 hours liquid media in the presence of the respective antisense agents, diluted 1:10 into liquid media and Fluorocillin green, and monitored in the Tecan GENios for 5 hr at 37° C. measuring every 2 min. The slope of fluorescence measured was used as a measure of β-lactamase activity.
Using quantitative real-time polymerase chain reaction (qPCR), expression levels of the bla gene in presence of the three antisense agents were measured. Studies were carried out with 5 μM α-TSS, 25 μM α-RBS, and 25 μM α-YUNR in the absence of ampicillin.

Compound	lag time (MG1655 E. coli [2])	growth inhibition of CRE E. coli (CRE E. coli)	growth inhibition of MDR S. typhimurium [3]	growth inhibition of MDR E. coli (MDR E. coli)	further results
CC1(C)S[C@@H]2[C@H](NC(=O)[C@H](N)c3ccccc3)C(=O)N2[C@H]1C(=O)O [ampicillin, Ampicillin, reference compound]					slope of the transition from resistant to sensitive (Boltzman fit) [1]: −0.0051 ODmLμg^−1; ampicillin concentration up to which growth is without inhibition ([1]; 24 hr): 300 µg/mL; ampicillin concentration where no growth was observed ([1]; 24 hr): 700 µg/mL
KFFKFFKFFK -O-gctttcattccg (antisense GCTTTCATTCCG; all peptide nucleic acid (PNA); (KFF)3K cell-penetrating peptide joined to the N-terminus through an O-linker) [α-lexA, 12-mer antisense PNA centered on start codon of lexA, O-linker to (KFF)3K]	significantly increased lag time	inhibited	inhibited	inhibited	growth of MG1655 E. coli cultures (MG1655 E. coli [2]): completely inhibited; also recorded: completely prevented cell growth; also recorded: Complete inhibition; viable cells at six and eight hours (MG1655 E. coli [4]): prevented significant increase in viable cells; also recorded: prevents significant increases in viable MG1655 E. coli cells
KFFKFFKFFK -O-taatcatggtat (antisense TAATCATGGTAT; all peptide nucleic acid (PNA); (KFF)3K cell-penetrating peptide joined to the N-terminus through an O-linker) [α-folC, 12-mer antisense PNA centered on start codon of folC, O-linker to (KFF)3K]		inhibited	inhibited	inhibited	
KFFKFFKFFK -O-tcaaacattgtc (antisense TCAAACATTGTC; all peptide nucleic acid (PNA); (KFF)3K cell-penetrating peptide joined to the N-terminus through an O-linker) [α-ffh, 12-mer antisense PNA centered on start codon of ffh, O-linker to (KFF)3K]		inhibited	inhibited	inhibited	
KFFKFFKFFK-O-cacctgcaagag (antisense CACCTGCAAGAG; all peptide nucleic acid (PNA); (KFF)3K cell-penetrating peptide joined to the N-terminus through an O-linker) [α-fnrS]	significantly increased lag time	inhibited	inhibited		growth of MG1655 E. coli cultures (MG1655 E. coli [2]): completely inhibited; also recorded: completely prevented cell growth; also recorded: Complete inhibition; growth inhibition of ESBL K. pneumoniae (ESBL K. pneumoniae): inhibited
KFFKFFKFFK-O-cctttttcaata (antisense CCTTTTTCAATA; PNA, (KFF)3K peptide via O-linker, chemistry not fully specified) [α-RBS]					re-sensitization of drug resistant E. coli to ampicillin [5]: re-sensitized drug resistant E. coli to ampicillin; also recorded: re-sensitization of drug resistant E. coli to ampicillin; also recorded: re-sensitize; growth in absence of ampicillin (toxicity of antisense agent) ([5]; absence of ampicillin): non-toxic effect; also recorded: No inhibition; growth of drug-resistant E. coli in presence of ampicillin [5]: hindered cell growth; also recorded: impact growth; also recorded: significant antibiotic effect; minimum inhibitory concentration (MIC) ([5]; in presence of 300 μg/mL ampicillin, after overnight pretreatment with antisense agent): 25 µM; bla mRNA expression (bla mRNA): did not affect bla transcript levels; also recorded: did not significantly reduce bla expression
KFFKFFKFFK-O-gaataagggcga (antisense GAATAAGGGCGA; PNA, (KFF)3K peptide via O-linker, chemistry not fully specified) [α-YUNR]					growth of drug-resistant E. coli in presence of ampicillin [5]: no impact on cell growth; β-lactamase activity (β-lactamase): no impact on protein activity
KFFKFFKFFK-O-ttcgacatcaac (antisense TTCGACATCAAC; PNA, (KFF)3K peptide via O-linker, chemistry not fully specified) [α-gyrB, 12-mer antisense PNA centered on start codon of gyrB, O-linker to (KFF)3K]	significantly increased lag time	inhibited	inhibited		
